What is called IC50 is the point on the concentration scale where inhibition reaches its midpoint. The low end stands for greater potency in that assay, the high end for weaker potency in that assay. For orientation: Kp means the ratio of the level in a tissue or fluid to that in plasma or blood. For orientation: Ki means the equilibrium dissociation constant of an inhibitor or competing ligand from its target.

Molecules are shown by their SMILES.

For series [1], the target named is T1, Prostaglandin E2 receptor EP1 subtype (Homo sapiens, UniProt P34995).
T1 sequence (P34995 whole entry): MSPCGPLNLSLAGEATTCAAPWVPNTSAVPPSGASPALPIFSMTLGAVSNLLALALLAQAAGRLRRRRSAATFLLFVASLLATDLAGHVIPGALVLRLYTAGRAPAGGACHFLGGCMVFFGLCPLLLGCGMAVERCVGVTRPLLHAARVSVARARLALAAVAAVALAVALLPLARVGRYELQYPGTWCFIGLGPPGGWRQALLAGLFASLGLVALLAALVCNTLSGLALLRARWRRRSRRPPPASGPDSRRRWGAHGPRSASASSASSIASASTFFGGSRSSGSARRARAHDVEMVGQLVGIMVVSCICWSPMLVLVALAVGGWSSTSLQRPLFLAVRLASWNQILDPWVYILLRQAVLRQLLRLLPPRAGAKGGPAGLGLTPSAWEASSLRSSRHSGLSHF
In words: Binding affinity to EP1 receptor.

A further series concerns the target Cytochrome P450 2C19 (Homo sapiens, UniProt P33261). In words: Inhibition of CYP2C19. The series is classed as ADME.
In another series the target is Cytochrome P450 3A4 (Homo sapiens, UniProt P08684). In words: Inhibition of CYP3A4. The series is classed as ADME.
A short description of series [2]: Ratio of drug level in rat brain to blood at 0.28 mg/kg/hr, iv for 18 hrs at steady state. It counts as ADME, organism-based. Further details: route intravenous.
The next series concerns the target Cytochrome P450 2C9 (Homo sapiens, UniProt P11712). In words: Inhibition of CYP2C9. The series is classed as ADME.
In a further series the target is Cytochrome P450 2D6 (Homo sapiens, UniProt P10635). Put plainly: Inhibition of CYP2D6. It counts as ADME.
The next series concerns the target T2, Cytochrome P450 1A2 (Homo sapiens, UniProt P05177).
T2 sequence (P05177 whole entry): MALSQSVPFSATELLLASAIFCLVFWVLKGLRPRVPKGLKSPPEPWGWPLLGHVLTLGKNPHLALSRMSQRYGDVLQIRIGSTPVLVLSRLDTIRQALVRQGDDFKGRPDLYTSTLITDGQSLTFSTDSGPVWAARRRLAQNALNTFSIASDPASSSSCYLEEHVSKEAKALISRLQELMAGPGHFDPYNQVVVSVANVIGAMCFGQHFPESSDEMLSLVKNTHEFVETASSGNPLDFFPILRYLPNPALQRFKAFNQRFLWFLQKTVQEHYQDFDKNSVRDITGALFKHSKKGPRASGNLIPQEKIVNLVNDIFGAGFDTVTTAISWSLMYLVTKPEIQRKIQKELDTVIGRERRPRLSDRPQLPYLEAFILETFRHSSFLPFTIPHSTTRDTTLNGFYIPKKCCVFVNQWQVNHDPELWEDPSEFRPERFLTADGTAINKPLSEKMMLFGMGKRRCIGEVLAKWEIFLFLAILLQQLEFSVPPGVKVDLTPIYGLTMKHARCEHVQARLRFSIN
Put plainly: Inhibition of CYP1A2. The series is classed as ADME.

In series [3] the test system is Liver microsomes. In words: Metabolic stability assessed as intrinsic clearance per gram of rat liver microsomes. The series is classed as ADME, Microsome. In general terms: Liver microsomes are a subcellular fraction often used to study metabolism.
Series [4] has as its target T1, Prostaglandin E2 receptor EP1 subtype. Put plainly: Antagonist activity at EP1 receptor assessed as calcium mobilization by FLIPR assay. The series is classed as functional.
Series [5] concerns Liver microsomes. Put plainly: Metabolic stability assessed as intrinsic clearance per gram of human liver microsomes. It counts as ADME, Microsome.

Chain of Cytochrome P450 2C19 (P33261 whole entry): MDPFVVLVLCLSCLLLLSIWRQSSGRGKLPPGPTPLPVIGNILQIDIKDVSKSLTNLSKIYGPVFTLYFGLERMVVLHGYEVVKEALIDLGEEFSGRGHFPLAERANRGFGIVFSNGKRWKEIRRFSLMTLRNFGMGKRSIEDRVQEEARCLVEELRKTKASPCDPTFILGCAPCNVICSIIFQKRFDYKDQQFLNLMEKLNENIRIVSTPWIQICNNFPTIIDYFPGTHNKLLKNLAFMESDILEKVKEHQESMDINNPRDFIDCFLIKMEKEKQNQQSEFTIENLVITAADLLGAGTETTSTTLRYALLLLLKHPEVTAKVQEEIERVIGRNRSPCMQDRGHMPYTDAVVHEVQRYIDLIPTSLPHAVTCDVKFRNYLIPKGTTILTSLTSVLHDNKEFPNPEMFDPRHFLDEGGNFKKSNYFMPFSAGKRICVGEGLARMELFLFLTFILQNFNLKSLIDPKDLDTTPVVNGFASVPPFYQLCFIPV
Chain of Cytochrome P450 2D6 (P10635 whole entry): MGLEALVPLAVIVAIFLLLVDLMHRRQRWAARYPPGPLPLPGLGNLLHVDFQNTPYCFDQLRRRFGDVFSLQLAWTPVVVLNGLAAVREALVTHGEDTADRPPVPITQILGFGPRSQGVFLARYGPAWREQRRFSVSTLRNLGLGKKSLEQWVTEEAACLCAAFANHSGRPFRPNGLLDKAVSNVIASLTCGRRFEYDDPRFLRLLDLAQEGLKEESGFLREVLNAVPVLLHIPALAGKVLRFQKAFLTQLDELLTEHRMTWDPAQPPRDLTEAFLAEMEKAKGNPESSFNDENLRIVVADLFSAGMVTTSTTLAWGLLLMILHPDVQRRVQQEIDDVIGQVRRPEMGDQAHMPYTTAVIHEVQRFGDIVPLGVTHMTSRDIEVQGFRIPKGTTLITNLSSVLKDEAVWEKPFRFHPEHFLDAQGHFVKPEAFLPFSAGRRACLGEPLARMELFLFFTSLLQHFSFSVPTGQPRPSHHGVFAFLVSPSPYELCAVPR
Chain of Cytochrome P450 3A4 (P08684 whole entry): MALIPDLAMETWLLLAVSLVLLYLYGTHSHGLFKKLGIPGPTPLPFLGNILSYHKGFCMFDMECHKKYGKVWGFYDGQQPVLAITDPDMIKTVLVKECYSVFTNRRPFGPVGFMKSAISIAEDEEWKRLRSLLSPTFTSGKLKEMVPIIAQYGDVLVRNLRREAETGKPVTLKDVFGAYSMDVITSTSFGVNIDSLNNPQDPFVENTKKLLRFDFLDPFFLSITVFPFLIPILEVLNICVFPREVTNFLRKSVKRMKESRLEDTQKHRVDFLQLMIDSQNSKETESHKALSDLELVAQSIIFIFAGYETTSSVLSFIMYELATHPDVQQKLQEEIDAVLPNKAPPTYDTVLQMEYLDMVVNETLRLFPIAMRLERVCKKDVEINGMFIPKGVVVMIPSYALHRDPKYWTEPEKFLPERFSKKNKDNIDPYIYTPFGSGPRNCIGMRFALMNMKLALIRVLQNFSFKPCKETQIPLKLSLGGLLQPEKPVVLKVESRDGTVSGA
Chain of Cytochrome P450 2C9 (P11712 whole entry): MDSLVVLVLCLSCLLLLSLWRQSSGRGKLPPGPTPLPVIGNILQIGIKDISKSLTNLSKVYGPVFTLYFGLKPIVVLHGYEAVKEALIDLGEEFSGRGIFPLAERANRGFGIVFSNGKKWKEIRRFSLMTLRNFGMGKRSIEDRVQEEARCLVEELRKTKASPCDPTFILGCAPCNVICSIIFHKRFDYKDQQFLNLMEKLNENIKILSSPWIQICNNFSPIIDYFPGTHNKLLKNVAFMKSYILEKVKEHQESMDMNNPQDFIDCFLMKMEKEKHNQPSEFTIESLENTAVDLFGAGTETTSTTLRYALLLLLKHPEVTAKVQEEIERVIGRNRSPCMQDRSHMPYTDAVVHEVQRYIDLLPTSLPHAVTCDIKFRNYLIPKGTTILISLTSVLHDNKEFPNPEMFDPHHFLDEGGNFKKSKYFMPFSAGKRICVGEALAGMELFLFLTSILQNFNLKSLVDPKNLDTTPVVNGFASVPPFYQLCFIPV

In [1], `O=C(O)c1cccc(-c2ccccc2-c2cc(Cl)ccc2OCc2ccc(Br)cc2F)n1` had an IC50 of 50.1 nM.

With `O=C(O)c1cccc(C2=C(c3cc(Cl)ccc3OCc3ccc(F)cc3F)CCC2)n1`, the IC50 against Cytochrome P450 2C19 is 62000 nM; against Cytochrome P450 3A4 it was 89000 nM; against Cytochrome P450 2C9, 25000 nM; on Cytochrome P450 2D6, above 100000 nM; on Cytochrome P450 1A2, above 100000 nM. Moreover, in series [2], the Kp at 18 h worked out at 0.2.

As to `O=C(O)c1cccc(-c2ccccc2-c2cc(Cl)ccc2OCc2ccc(F)cc2F)n1`, in series [1], the IC50 is 3.98 nM.

Consider `O=C(O)c1cccc(-c2ccccc2-c2cc(Cl)ccc2OCC2CCCC2)n1`, for which, in [1], the IC50 is 158 nM.

In series [1], `Cc1ccc(-c2cc(Cl)ccc2OCc2ccccc2)c(-c2cccc(C(=O)O)c2)c1` gave an IC50 above 1000 nM.

With `O=C(O)c1ccc(F)c(-c2ccccc2-c2ccccc2OCc2ccccc2)c1`, the IC50 in series [1] was 79.4 nM.

Molecule `O=C(O)c1cccc(-c2ccccc2-c2cc(Cl)ccc2OCc2ccc(Cl)cc2F)n1` showed a 50% inhibitory concentration (IC50) in series [1] of 20 nM.

Turning to `O=C(O)c1cccc(-c2ccccc2-c2cc(Cl)ccc2OCc2ccc(F)cc2)n1`, the IC50 in [1] is 5.01 nM.

`O=C(O)c1cccc(-c2ccccc2-c2cc(Cl)ccc2OCc2ccccc2F)n1` gave an IC50 in series [1] of 39.8 nM.

In [1], `O=C(O)c1cc(F)cc(-c2ccccc2-c2ccccc2OCc2ccccc2)c1` had a concentration for half-maximal inhibition (IC50) of 63.1 nM.

In [1], `CCC(=O)Nc1cc(C(=O)O)cc(-c2ccccc2-c2cc(Cl)ccc2OCc2ccccc2)c1` showed an IC50 of 6.31 nM.

`O=C(O)c1cccc(-c2cc(Cl)ccc2-c2cc(Cl)ccc2OCc2ccccc2)c1` showed an IC50 in [1] above 1000 nM.

`CCCCOc1ccc(Cl)cc1-c1ccccc1-c1cccc(C(=O)O)n1`: the IC50 in series [1] is 100 nM.

As for `CCCC(=O)Nc1cc(C(=O)O)cc(-c2ccccc2-c2cc(Cl)ccc2OCc2ccccc2)c1`, the IC50 in [1] is 2 nM.

In the case of `O=C(O)c1cccc(-c2ccccc2-c2ccc(Cl)cc2OCc2ccccc2)c1`, the half-inhibitory concentration (IC50) in series [1] is 316 nM.

On to `Cc1ccc(-c2cccc(C(=O)O)c2)c(-c2cc(Cl)ccc2OCc2ccccc2)c1`, for which the IC50 in [1] was above 1000 nM.

Molecule `O=C(O)c1ccc(-c2ccccc2-c2cc(Cl)ccc2OCc2ccccc2)cc1` had an IC50 in series [1] of 794 nM.

With `O=C(O)c1cccc(-c2ccccc2-c2cc(Cl)ccc2OCc2ccc(F)cc2Cl)n1`, the IC50 in series [1] is 63.1 nM.

`O=C(O)c1cccc(-c2ccccc2-c2cc(Cl)ccc2OCc2ccccc2)n1` showed an IC50 in series [1] of 10 nM.

As for `O=C(O)c1ccccc1-c1ccccc1-c1cc(Cl)ccc1OCc1ccccc1`, the concentration for half-maximal inhibition (IC50) in [1] was 20 nM.

In series [1], `COCC(=O)Nc1cc(C(=O)O)cc(-c2ccccc2-c2cc(Cl)ccc2OCc2ccccc2)c1` showed an IC50 of 3.98 nM.

As for `Cc1cccc(-c2cc(Cl)ccc2OCc2ccccc2)c1-c1cccc(C(=O)O)c1`, the IC50 in series [1] is 100 nM.

In the case of `O=C(O)c1cccc(-c2ccccc2-c2cc(Cl)ccc2OCc2ccccc2)c1`, the values for the CL result in the series with Liver microsomes [3] and in the series on Liver microsomes [5] were “<= 0.5 ml/min/g” and below 0.5 mL/min/g, respectively. The inhibitory constant (Ki) in series [4] is 31.6 nM.

Molecule `Cc1c(C(=O)O)cccc1-c1ccccc1-c1ccccc1OCc1ccccc1` had an IC50 in series [1] of 501 nM.

`O=C(O)c1cccc(-c2ccccc2-c2ccccc2OCc2ccccc2)c1` showed an IC50 in series [1] of 20 nM.

In turn, `CCCOc1ccc(Cl)cc1-c1ccccc1-c1cccc(C(=O)O)n1` had an IC50 in [1] of 251 nM.

Molecule `CC(C)C(=O)Nc1cc(C(=O)O)cc(-c2ccccc2-c2cc(Cl)ccc2OCc2ccccc2)c1` gave an IC50 in [1] of 10 nM.

Turning to `O=C(O)c1cccc(-c2ccccc2-c2cc(Cl)ccc2OCc2c(F)cc(F)cc2F)n1`, in series [1], the IC50 is 12.6 nM.

`O=C(O)c1cc(-c2ccccc2-c2ccccc2OCc2ccccc2)ccc1Cl` showed an IC50 in [1] of 126 nM.

Molecule `CC(=O)Nc1cc(C(=O)O)cc(-c2ccccc2-c2cc(Cl)ccc2OCc2ccccc2)c1` gave an IC50 in [1] of 10 nM.
